Several values for one entry are separate records, joined by “and”; a condition that tells them apart may be missing. Identical values can stand only once. Like-named read-outs stand apart in the source and are kept apart here. Non-standard residues stand in square brackets, D forms with d. Residues, ends and D or L forms follow the SMILES beside them. No end group written: not given here.
Columns and labels:
[1] = system: RD cells; assay: Cytotoxicity by CCK-8 in RD cells; format: cell-based; conditions: RD cells; for cytotoxicity, result in words: CCK-8, 24 h; for Cell viability (%): 24 h
Procedure: (§1) The experiment was performed as follows. • (1) RD cells were plated in a 96-well plate at 100 μl per well. • (2) After the cells reached 70%-80% confluence, the MEM medium containing 10% serum was replaced with a MEM medium containing 2% serum. Then, polypeptide P2 was added to generate gradient concentrations of 0.01 μM, 0.1 μM, 1 μM, 10 μM, and 100 μM (final concentration), respectively. • (3) The test was performed 24 hours after the addition of the polypeptide, and 10 μl of viable cell detection reagent CCK-8 was added to each well and mixed well. • (4) The plate was incubated at 37° C. for 2 h. • (5) The absorbance value at OD450 was measured with a microplate reader.
as §1, with “P1” for “P2”, “concentrations),” for “concentration),”
(§2) RD cells were used to test the antiviral effect of polypeptide P1. When RD cells reached 80% confluence, polypeptide P1 was added at concentrations of 0 μM (control group), 0.01 μM, 0.1 μM, 1 μM, 10 μM, and 100 μM, respectively. Three parallel wells were used for each concentration. The test was carried out 24 hours later, and the cell viability was detected using the CCK-8 kit.
as §1, with “3A-TAT-EP” for “P2”, “concentrations),” for “concentration),”
as §2, with “3A-TAT-EP.” for “P1.”, “3A-TAT-EP” for “P1”
as §1, with “Then, 3A-EP-DRI or 3A-EP-PEG4-PA” for “Then, polypeptide P2”, “and 50” for “and 100”, “(final concentrations),” for “(final concentration),”
as §2, with “polypeptides 3A-EP-DRI and 3A-EP-PEG4-PA.” for “polypeptide P1.”, “3A-EP-DRI or 3A-EP-PEG4-PA” for “P1”, “50” for “100”, “kit. […]” for “kit.”

[2] = Cytotoxicity by CCK-8 in RD cells; format: cell-based; conditions: human; for viability at 24 h, 0.01 µM: 0.01 μM polypeptide; for viability at 24 h, 0.1 µM: 0.1 μM polypeptide; for viability at 24 h, 1 µM: 1 μM polypeptide; for viability at 24 h, 10 µM: 10 μM polypeptide; for viability at 24 h, 20 µM: 20 μM polypeptide; for viability at 24 h, 20 µM / viability at 24 h, 30 µM / viability at 24 h, 40 µM / viability at 24 h, 50 µM: 24 h (Table 6); for viability at 24 h, 30 µM: 30 μM polypeptide; for viability at 24 h, 40 µM: 40 μM polypeptide; for viability at 24 h, 50 µM: 50 μM polypeptide
Procedure: as §1
as §1, with “P1” for “P2”, “concentrations),” for “concentration),”
as §2
as §1, with “3A-TAT-EP” for “P2”, “concentrations),” for “concentration),”
as §2, with “3A-TAT-EP.” for “P1.”, “3A-TAT-EP” for “P1”
as §1, with “Then, 3A-EP-DRI or 3A-EP-PEG4-PA” for “Then, polypeptide P2”, “and 50” for “and 100”, “(final concentrations),” for “(final concentration),”
as §2, with “polypeptides 3A-EP-DRI and 3A-EP-PEG4-PA.” for “polypeptide P1.”, “3A-EP-DRI or 3A-EP-PEG4-PA” for “P1”, “50” for “100”, “kit. […]” for “kit.”

[3] = RD cells, 24 h, untreated = 100%, read-out: Cell viability (%)
[4] = RD cells, read-out: Cell viability (%)
[5] = Table 1 summary, cell line not given, read-out: CC50

CC[C@@H](C)[C@@H](NC(=O)[C@H]1CCCN1C(C)=O)C(=O)N[C@@H](C(=O)N[C@H](Cc1c[nH]c2ccccc12)C(=O)NCC(=O)N[C@H](CCC(N)=O)C(=O)N[C@H](CCC(=O)O)C(=O)N[C@H](CCCNC(=N)N)C(=O)N[C@H](CS)C(=O)N[C@H](Cc1ccc(O)cc1)C(=O)N[C@H](CCC(N)=O)C(=O)N[C@H](CCCNC(=N)N)C(=O)N[C@@H](C(=O)N[C@H](CCC(=O)O)C(=O)N[C@H](CCC(=O)O)C(=O)N1CCC[C@@H]1C(=O)N1CCC[C@@H]1C(=O)N[C@H](CCCNC(=N)N)C(=O)N[C@H](CCCNC(=N)N)C(=O)N[C@H](CCCNC(=N)N)C(=O)N[C@H](CCC(N)=O)C(=O)N[C@H](CCCNC(=N)N)C(=O)N[C@H](CCCNC(=N)N)C(=O)N[C@H](CCCCN)C(=O)N[C@H](CCCCN)C(=O)N[C@H](CCCNC(=N)N)C(=O)NCC(=O)N[C@H](Cc1ccc(O)cc1)C(N)=O)C(C)C)[C@H](C)CC [3A-EP-DRI]
cytotoxicity, result in words [1]: not toxic to cells within 50 μM | viability at 24 h, 0.01 µM [2, 3]: 106% | viability at 24 h, 0.1 µM [2, 3]: 95.9% | viability at 24 h, 1 µM [2, 3]: 91.3% | viability at 24 h, 10 µM [2, 3]: 95.7% | viability at 24 h, 20 µM [2, 4]: 101% | viability at 24 h, 30 µM [2, 4]: 99% | viability at 24 h, 40 µM [2, 4]: 89% | viability at 24 h, 50 µM [2, 4]: 78.5% | CC50 at 24 h [2, 5]: > 100 µM

CCCCCCCCCCCCCCCC(=O)NCCCC[C@H](NC(=O)CCOCCOCCOCCOCCNC(=O)[C@H](CCCCN)NC(=O)[C@H](C)NC(=O)[C@@H]1CCCN1C(=O)[C@@H](NC(=O)[C@@H](NC(=O)[C@H](Cc1c[nH]c2ccccc12)NC(=O)CNC(=O)[C@H](CCC(N)=O)NC(=O)[C@H](CCC(=O)O)NC(=O)[C@H](CCCNC(=N)N)NC(=O)[C@H](CS)NC(=O)[C@H](Cc1ccc(O)cc1)NC(=O)[C@H](CCC(N)=O)NC(=O)[C@H](CCCNC(=N)N)NC(=O)[C@@H](NC(=O)[C@H](CCC(=O)O)NC(=O)[C@@H](N)CCC(=O)O)C(C)C)[C@@H](C)CC)[C@@H](C)CC)C(=O)O [3A-EP-PEG4-PA]
cytotoxicity, result in words [1]: not toxic to cells within 50 μM | viability at 24 h, 0.01 µM [2, 3]: 107% | viability at 24 h, 0.1 µM [2, 3]: 94.9% | viability at 24 h, 1 µM [2, 3]: 89.9% | viability at 24 h, 10 µM [2, 3]: 95.3% | viability at 24 h, 20 µM [2, 4]: 98.4% | viability at 24 h, 30 µM [2, 4]: 99.5% | viability at 24 h, 40 µM [2, 4]: 99.3% | viability at 24 h, 50 µM [2, 4]: 94.8% | CC50 at 24 h [2, 5]: > 100 µM

CC(=O)N[C@H](CCCNC(=N)N)C(=O)N[C@H](CS)C(=O)N[C@H](Cc1ccc(O)cc1)C(=O)N[C@H](CCC(N)=O)C(=O)N[C@H](CCCNC(=N)N)C(=O)N[C@@H](C(=O)N[C@H](CCC(=O)O)C(=O)N[C@H](CCC(=O)O)C(=O)N1CCC[C@@H]1C(=O)N1CCC[C@@H]1C(=O)N[C@H](CCCNC(=N)N)C(=O)N[C@H](CCCNC(=N)N)C(=O)N[C@H](CCCNC(=N)N)C(=O)N[C@H](CCC(N)=O)C(=O)N[C@H](CCCNC(=N)N)C(=O)N[C@H](CCCNC(=N)N)C(=O)N[C@H](CCCCN)C(=O)N[C@H](CCCCN)C(=O)N[C@H](CCCNC(=N)N)C(=O)NCC(=O)N[C@H](Cc1ccc(O)cc1)C(N)=O)C(C)C [ER-DRI] (Ac-[dR][dC][dY][dQ][dR][dV][dE][dE][dP][dP][dR][dR][dR][dQ][dR][dR][dK][dK][dR]G[dY]-NH2)
Cell viability (%) ([1]; 0.46875 μM): 100.2% and 99.28% | Cell viability (%) ([1]; 2.34375 μM): 98.83% and 96.33% | Cell viability (%) ([1]; 4.6875 μM): 98.51% and 97.63% | Cell viability (%) ([1]; 9.375 μM): 96.79% and 94.15% | Cell viability (%) ([1]; 18.75 μM): 91.14% and 89.01% | Cell viability (%) ([1]; 37.5 μM): 86.77% and 86.97% | Cell viability (%) ([1]; 75 μM): 70.42% and 71.95% | Cell viability (%) ([1]; 150 μM): 34.62% and 34.08% | Cell viability (%) ([1]; 300 μM): 17.58% and 18.69% | cytotoxicity, result in words [1]: very low toxicity | viability at 24 h, 0.46875 µM ([2]; RD cells, 0.46875 μM, 24 h, read-out: Cell viability (%)): 103% | viability at 24 h, 2.34375 µM ([2]; RD cells, 2.34375 μM, 24 h, read-out: Cell viability (%)): 104% | viability at 24 h, 4.6875 µM ([2]; RD cells, 4.6875 μM, 24 h, read-out: Cell viability (%)): 101% | viability at 24 h, 9.375 µM ([2]; RD cells, 9.375 μM, 24 h, read-out: Cell viability (%)): 96% | viability at 24 h, 18.75 µM ([2]; RD cells, 18.75 μM, 24 h, read-out: Cell viability (%)): 95.8% | viability at 24 h, 37.5 µM ([2]; RD cells, 37.5 μM, 24 h, read-out: Cell viability (%)): 86% | viability at 24 h, 75 µM ([2]; RD cells, 75 μM, 24 h, read-out: Cell viability (%)): 68.9% | viability at 24 h, 150 µM ([2]; RD cells, 150 μM, 24 h, read-out: Cell viability (%)): 34% | viability at 24 h, 300 µM ([2]; RD cells, 300 μM, 24 h, read-out: Cell viability (%)): 18.2% | CC50 at 24 h ([2]; RD cells, CCK-8, 24 h, Example 15, read-out: 50% cytotoxic concentration (CC50)): 117 µM

RRRRRRRREEVRQYCRDQ [P2]
Cell viability (%) ([1]; 0.01 μM polypeptide, untreated = 100%): 104.6% and 102.7% | Cell viability (%) ([1]; 0.1 μM polypeptide, untreated = 100%): 104% and 100.6% | Cell viability (%) ([1]; 1 μM polypeptide, untreated = 100%): 105.4% and 98.81% | Cell viability (%) ([1]; 10 μM polypeptide, untreated = 100%): 101.1% and 99.03% | Cell viability (%) ([1]; 100 μM polypeptide, untreated = 100%): 106.8% and 94.07% | cytotoxicity, result in words [1]: not toxic to cells within 100 μM | viability at 24 h, 0.01 µM [2, 3]: 98% | viability at 24 h, 0.1 µM [2, 3]: 94.4% | viability at 24 h, 1 µM [2, 3]: 105% | viability at 24 h, 10 µM [2, 3]: 96.6% | viability at 24 h, 100 µM ([2]; RD cells, 100 μM polypeptide, 24 h, untreated = 100%, read-out: Cell viability (%)): 90.1% | CC50 at 24 h [2, 5]: > 100 µM
